Key:
[1] = test system: CD4+ T cells; test: CD4+ T cell culture, CD4+ IFNγ+ cells by flow cytometry; type: cell-based, mice; conditions: 24 hours, PMA and ionomycin final 6 hours, relative to vehicle treated wells
Method: CD4+ T cells are central to the generation of inflammation in a variety of conductions. In addition, CD4+ T cells are primary responders to the IL-18 cytokine. As such, CD4+ T cells were cultured in vitro in the presence of selected compounds to test for pharmacological activity.
CD4+ T cell culture. Spleens were excised from mice and crushed between frosted microscope slides. Cellular suspension was filtered, centrifuged and exposed to hypotonic lysis to remove red blood cells. CD4+ T cells were enriched by magnetic sorting. Cells were re-suspended in IMDM and cultured in CD3- and CD28-coated round bottom wells. Cells were treated with indicated compounds at 10 and 100 nM or vehicle for 24 hours. During the final 6 hours, cells were stimulated with phorbol myristate acetate and ionomycin. Cells were then collected and stained with antibodies to detect CD45+ CD4+ IFNγ+ cells by flow cytometry. Data was acquired using a FACS Celesta flow cytometer with FACSDiva software.

[2] = test system: DSS colitis model; test: DSS colitis model; type: in vivo, mice; conditions: oral, 20 mg/kg once daily, DSS in drinking water for seven days; for proportion of CD4+ IFNγ+ cells in the colonic lamina propria: flow cytometry; for severity of disease by macroscopic scoring of the colon: score 0 to 4, relative to vehicle group
From the text: Inflammation of the gastrointestinal tract can be caused by numerous factors including food antigens, infectious agents, autoimmunity, or radiation. The dextran sulfate sodium (DSS) model provides a model system where the epithelial barrier is disrupted in the distal intestine allowing for translocation of bacteria and generation of immune responses. DSS model. Mice were given DSS in drinking water for seven days. At project initiation, mice were approximately 8 weeks of age and began dosing 24 hours after being placed on DSS water. Treatments were prepared within a 0.5% methylcellulose solution. The dosage used was 20 mg/kg delivered once daily. At conclusion, colons were scored macroscopically for presence of lesions, blood, stool consistency, mucosal thickening, friability and length on a summarized score from 0 to 4. Flow cytometry. Colons were collected into RPMI/FBS buffer containing collagenase and DNase for digestion. Tissues were digested for 60 minutes under stifling at 37° C. Resultant cellular suspensions were filtered through 100 um strainers, centrifuged and washed in fresh RPMI. Following filtration, immune cells were purified by Percoll gradient of the cell-containing 40% Percoll overlayed onto 70% Percoll solution. After centrifugation, interphase was collected and washed to obtain enriched colonic lamina propria cell fractions. Cells were labeled with mixtures of extracellular and intracellular antibodies to quantify the presence of CD45+ CD3+ CD4+ CD8− IFNγ+ cells. Data was acquired using a FACS Celesta flow cytometer with FACSDiva software.

SMILES | proportion of CD4+ IFNγ+ cells ([1]; 10 nM) | proportion of CD4+ IFNγ+ cells ([1]; 100 nM) | proportion of CD4+ IFNγ+ cells in the colonic lamina propria [2] | severity of disease by macroscopic scoring of the colon [2]
COc1cc(-c2cnc(C(=O)C3CCN(C(=O)c4cnnc5ccccc45)CC3)s2)ccc1O [Compound 11, cinnolin-4-yl(4-(5-(4-hydroxy-3-methoxyphenyl)thiazole-2-carbonyl)-piperidin-1-yl)methanone] | significantly reduced | significantly reduced | reducing | reduced
O=C(c1ncc(-c2ncccc2F)s1)[C@@H]1CN(C(=O)c2cc(F)c(F)cn2)CCO1 [Compound 34, 4,5-difluoro-pyridin-2-yl(2-(S)-(5-(3-fluoropyridin-2-yl)thiazol-2-carbonyl)-morpholin-4-yl)methanone] | significantly reduced | significantly reduced |  | 
O=C1C=C(C(=O)N2CCO[C@H](C(=O)c3ncc(-c4ccccc4F)s3)C2)NN2CC=CC12 (stereo partly drawn) [Compound 69, 2-((S)-2-(5-(2-fluorophenyl)thiazole-2-carbonyl)morpholine-4-carbonyl)-4a,7-dihydropyrrolo[1,2-b]pyridazin-4(1H)-one] |  | significantly reduced |  | 
O=C(c1ncc(-c2ncccc2F)s1)[C@@H]1CN(C(=O)c2cc(F)ccn2)CCO1 [Compound 40, 4-fluoro-pyridin-2-yl(2-(S)-(5-(3-fluoropyridin-2-yl)thiazol-2-carbonyl)-morpholin-4-yl)methanone] | significantly reduced | significantly reduced | reducing | reduced
O=C(c1ncc(-c2ncccc2F)s1)[C@@H]1CN(C(=O)c2cnnc3ccccc23)CCO1 [Compound 37, cinnolin-4-yl(2-(S)-(5-(3-fluoropyridin-2-yl)thiazol-2-carbonyl)-morpholin-4-yl)methanone] |  | significantly reduced | reducing | reduced
